In US8530497B2, “Crystalline salts of a potent HCV inhibitor” (Boehringer Ingelheim International GmbH, priority 2010, dated 2013):

Legend:
[1] = Intrinsic dissolution rate (Van Kel VK7000 dissolution tester, Wood's die); assay type: physicochemical; details: for Dissolution Rate: pH 6.8 (20 mM sodium phosphate), 37° C., 100 rpm
Protocol: 6. Dissolution Studies Intrinsic dissolution rates were evaluated using Van Kel VK7000 dissolution tester and 400 mL dissolution bath with a rotation rate of 100 rpm at 37° C. Samples were prepared using approximately 50 mg of API in a 6 mm diameter Wood's die with compression force of 3 kN and 15 seconds dwell time by Carver press. The test was performed in 400 mL of pH 6.8 (20 mM sodium phosphate). Samples were collected at 2, 5, 10, 15, 20, 25, and 30 minutes, and the collected samples were unfiltered or filtered using […] PDVF filter. The concentrations of the drug were determined by HPLC using isocratic Method with fluorescence detection.

[2] = Dynamic Vapor Sorption (DVS) moisture gain; assay type: physicochemical; details: through 85% RH at 25° C.; for hygroscopic properties (DVS): conditions used in the analysis
Protocol: 4. Dynamic Vapor Sorption Dynamic water sorption analyses were performed using Surface Measurement Systems DVS or DVS-HT, or VTI SGA-100 instruments. Sample sizes ranged from 4 mg to 13 mg. Three cycles of water sorption/desorption were run at 25° C. with change of relative humidity from 5-10% increments from 5% to 95%. The criteria for the step were weight change less than or equal to 0.002% or maximum time of 3 hours.

| Structure (SMILES) | dissolution rate relative to the sodium salt or HEA ([1]; pH 6.8) | Dissolution Rate [1] | moisture gain by Dynamic Vapor Sorption [2] | hygroscopic properties (DVS) [2] | dissolution rate compared with the sodium salt ([1]; pH 6.8) |
| --- | --- | --- | --- | --- | --- |
| C=C[C@@H]1C[C@]1(NC(=O)[C@@H]1C[C@@H](Oc2cc(-c3csc(NC(=O)C(C)C)n3)nc3c(Br)c(OC)ccc23)CN1C(=O)[C@@H](NC(=O)OC1CCCC1)C(C)(C)C)C(=O)O [TH] | > 10 fold | 64.4 µg/min/mL | < 4% | non-hygroscopic or slightly hygroscopic |  |
| C=C[C@@H]1C[C@]1(NC(=O)[C@@H]1C[C@@H](Oc2cc(-c3csc(NC(=O)C(C)C)n3)nc3c(Br)c(OC)ccc23)CN1C(=O)[C@@H](NC(=O)OC1CCCC1)C(C)(C)C)C(=O)O [NA] |  | 1.3 µg/min/mL |  |  |  |
| C=C[C@@H]1C[C@]1(NC(=O)[C@@H]1C[C@@H](Oc2cc(-c3csc(NC(=O)C(C)C)n3)nc3c(Br)c(OC)ccc23)CN1C(=O)[C@@H](NC(=O)OC1CCCC1)C(C)(C)C)C(=O)O [HEA] |  | 1.1 µg/min/mL | < 2.5% | non-hygroscopic | comparable to the sodium salt |
